One may read the IC50 as the concentration that gives 50% inhibition.

Molecules are shown by their SMILES. Activity calls are given as the source filed them. How the calls were made is not given here.

These results are taken from PubChem BioAssay AID1159563 (GlaxoSmithKline (GSK), 2015).

This assay deals with HepG2 cytotoxicity. The experiment in a line: HepG2 cell cytotoxicity, cytotoxicity control (AID 1159563).

Regarding `NS(=O)(=O)c1ccc(Nc2nccc(-c3cnn4ncccc34)n2)cc1`, the IC50 is > 100 µM (inactive).
As to `Cc1cccc(NS(=O)(=O)c2cnc3sc(C)cn3c2=O)c1`, the IC50 is > 100 µM (inactive).
With `CCOc1ccc(NC(=O)c2ccc(NC(=O)NC3CCCCC3)cc2)cc1` the figure was > 100 µM (inactive).
To `O=C(CN1CCC2(O)CCCCC2C1c1ccc2c(c1)OCO2)Nc1ccc(Cl)cc1Cl` (centres undefined) belongs > 100 µM (inactive); to `O=c1oc2ccccc2n1C1CCN(Cc2ccccc2-c2cccnc2)CC1`, > 100 µM (inactive).
With `O=C(NCCc1cccnc1)c1csc(-c2ccccc2)n1` the figure was > 100 µM (inactive).
Regarding `CCN(Cc1cccs1)C(=O)CSc1nnc(-c2ccc3c(c2)OCO3)o1`, the IC50 was > 100 µM (inactive).
To `Cc1cccc(Nc2nc(-c3ccccn3)cs2)n1` belongs 40 µM; to `Cc1c([N+](=O)[O-])c(C(=O)Nc2sc3c(c2C#N)CCC(C)C3)nn1C` (centres undefined), > 100 µM (inactive); to `Cc1nn(-c2ccccc2)nc1CNC(=O)CN(Cc1ccccn1)Cc1ccccn1`, > 130 µM (inactive).
Take `COc1ccc(C(=O)Nc2ccc(NC(=O)CO)cc2)cc1`: the IC50 was > 100 µM (inactive).
On to `O=C(Nc1n[nH]c(-c2ccccn2)n1)C1CC1c1ccccc1` (centres undefined), for which the IC50 is > 100 µM (inactive).
As for `O=C(Nc1ccc(S(=O)(=O)N2CCCC2)cc1)c1ccc([N+](=O)[O-])s1`, the IC50 was 6.3 µM.
To `O=C(NCCc1csc(-c2ccc(F)cc2)n1)c1cccs1` belongs > 100 µM (inactive).
As to `O=C(NCC1CCCCC1)c1cnns1`, the half-maximal inhibitory concentration (IC50) is 40 µM.
Take `O=C(Nc1ccccc1)Nc1nc(-c2ccccn2)cs1`: the IC50 was 25 µM.
`O=C(NCC(c1cccnc1)N1CCc2ccccc2C1)C(=O)Nc1cccc(Cl)c1` (centres undefined): the IC50 is > 100 µM (inactive).
For the compound `O=C(Nc1cccc(Cl)c1)N1CCCCC1c1cccnc1` (centres undefined), the IC50 is > 100 µM (inactive).
For `CCCCn1c(=O)c2c(N)onc2n(CCCC)c1=O`, the IC50 was 50 µM.
With `CN(C(=O)Nc1ccc2c(c1)CCN(C1CCC1)CC2)c1ccc(C#N)cc1` the figure was > 100 µM (inactive); with `O=S(=O)(c1cccc(CSc2nnc(-c3ccc4c(c3)OCO4)o2)c1)N1CCOCC1`, > 100 µM (inactive).
As for `O=C(CCCNC(=O)c1ccc(Cl)cc1)Nc1nc(-c2ccccn2)cs1`, the IC50 is > 100 µM (inactive).
For the compound `Fc1ccc(OC2CC(NCc3cccc4cn[nH]c34)C2)cc1C(F)(F)F` (centres undefined), the IC50 is 25 µM.
For `NC(=O)c1ncccc1Nc1nc(NC2CCC(O)CC2)ncc1Br` (centres undefined), the IC50 is > 100 µM (inactive).
With `Cc1[nH]nc2c1C(c1ccc(OCc3ccccc3F)cc1)SCC(=O)N2` (centres undefined) the figure was > 100 µM (inactive).
With `CCCC(=O)N(Cc1ccccn1)c1nc2ccccc2s1` the figure was > 100 µM (inactive).
`COc1cccc(-c2c(C)nn(-c3nc(N)nc(-c4ccccn4)n3)c2N)c1`: the IC50 was > 100 µM (inactive).
To `CCn1c(NC(=O)Cc2ccc(F)cc2)nc2ccccc21` belongs > 100 µM (inactive).
Consider `COc1ccc2nccc(NC(=O)C3(OC)CCN(CC(O)c4ccc5c(c4)OCCO5)CC3)c2n1` (centres undefined), for which the IC50 was 40 µM.
Consider `COc1ccc(-c2cnc(NC(=O)c3cc(-c4ccccn4)n[nH]3)n2C)cc1`, for which the IC50 was > 100 µM (inactive).
Turning to `Cc1[nH]c2ccccc2c(=O)c1Cc1c(C)[nH]c2ccccc2c1=O`, the IC50 is > 100 µM (inactive).
Turning to `CS(=O)(=O)c1ccc(Nc2nccc(-c3cnn4ncccc34)n2)cc1`, the IC50 is 16 µM.
Regarding `CNc1cc(C)nc(C2CN(C(=O)c3n[nH]c4ccccc34)CCO2)c1` (centres undefined), the IC50 was > 100 µM (inactive).
For `NC(N)=Nc1nc(-c2ccc(NC(N)=NCCN3CCCC3)cc2)cs1`, the IC50 was > 100 µM (inactive).
With `CS(=O)(=O)NC1CCC(Oc2cc3cnccc3cc2-c2ccsc2)CC1` (centres undefined), the half-inhibitory concentration (IC50) was 63 µM.
`CN(C)c1ccc(N)cc1CN(CC1CCCO1)S(C)(=O)=O` (centres undefined): the IC50 was > 100 µM (inactive).
For `O=C1CN(Cc2ccco2)C2CS(=O)(=O)CC2N1c1ccc(Cl)cc1` (centres undefined), the IC50 is > 100 µM (inactive).
To `O=[N+]([O-])c1ccc(-c2nnn(-c3cccnc3)n2)o1` belongs > 100 µM (inactive); to `C[C@@H](Oc1cc(-n2cnc3ccc(O[C@H]4CCNC4)cc32)sc1C(N)=O)c1ccccc1Cl`, 16 µM; to `O=C(CN1CCN(c2ccccn2)CC1)Nc1cc(S(=O)(=O)N2CCCCCC2)ccc1Cl`, > 100 µM (inactive).
As to `C[C@@H](Oc1cc(-n2cnc3ccc(CC(O)CO)cc32)sc1C(N)=O)c1ccccc1Cl` (some centres undefined), the IC50 was > 100 µM (inactive).
Take `O=C(NC1C(=O)N(c2ccccc2)C1c1cccnc1)c1ccc(Cl)s1` (centres undefined): the IC50 was > 100 µM (inactive).
In the case of `Cc1ccc(S(C)(=O)=O)cc1Nc1nccc(-c2sc(N)nc2-c2ccccc2)n1`, the IC50 is 32 µM.
Turning to `CC(C)n1c(-c2nonc2N)nc2cccc(OCCN3CCCC3)c21`, the IC50 is > 100 µM (inactive).
In the case of `CCc1c(C)nc(-n2nc(C)cc2NC(=O)COc2ccccc2F)[nH]c1=O`, the IC50 was > 100 µM (inactive).
To `O=C(NCc1nnc2n1CCCCC2)c1ccc(-c2ccc(F)cc2)o1` belongs > 100 µM (inactive); to `COc1ccc2ncc(=O)n(CCN3CCC(NCc4ccc(-c5cccs5)cc4)CC3)c2n1`, 13 µM; to `COc1ccc(-c2cnc(NC(=O)c3ccc(F)cc3)n2C)cc1`, > 100 µM (inactive).
Turning to `COc1ccc(Nc2nc(-c3ccccn3)cs2)c(OC)c1`, the IC50 is > 100 µM (inactive).
Consider `O=C(NCc1ccc(-n2cccc2)cc1)c1nc(Cn2ccc([N+](=O)[O-])n2)no1`, for which the IC50 was > 100 µM (inactive).
With `O=S1N=C(NCCCN(Cc2ccc(F)cc2)c2ccccn2)C(NCc2ccncc2)=N1` (centres undefined) the figure was 79 µM; with `Cc1nccn1C1CCCN(C(=O)c2cc3c(F)cccc3s2)C1` (centres undefined), > 100 µM (inactive); with `Cn1nccc1NC(=O)Cn1ccc(-c2ccncc2)n1`, > 100 µM (inactive).
In the case of `O=C(CSc1nnc(-c2ccc3c(c2)OCO3)o1)N(Cc1ccco1)CC(F)(F)F`, the IC50 was > 100 µM (inactive).
Regarding `O=C1CCCCCC1(Cc1cnc[nH]1)c1ccc(Cl)cc1Cl` (centres undefined), the IC50 is 79 µM.
As to `Cc1ccc2onc(Nc3ccnc(Nc4cccc(S(C)(=O)=O)c4)n3)c2c1`, the IC50 is 50 µM.
In the case of `COc1cnc2ccc(=O)n(CCN3CCC(NC/C=C/c4cc(F)ccc4F)CC3)c2c1`, the IC50 was 63 µM.
With `COc1ccc(CNc2nsc3ccccc23)cc1OC` the figure was 50 µM; with `CC(C)c1sc(Cl)nc1C(=O)NCCc1nc(C(=O)Nc2ccc3c(c2)OCO3)cs1`, > 100 µM (inactive).
Regarding `O=C1NCc2cccc(Nc3nc(NC4CCC(O)CC4)ncc3Br)c21` (centres undefined), the IC50 is > 100 µM (inactive).
Regarding `CS(=O)(=O)c1cccc(-c2cnc(N)c3c(-c4ccc(CO)cc4)csc23)c1`, the IC50 was > 100 µM (inactive).
To `COc1ccc(C2=NCC(CSc3nnc(-c4ccc5c(c4)OCO5)o3)S2)cc1` (centres undefined) belongs > 100 µM (inactive); to `Nc1nc(-c2ccccc2)cc(-c2nc3ncccc3[nH]2)n1`, 40 µM.
Consider `Cc1ccc(NC(=O)C(C)n2nc([N+](=O)[O-])c(Br)c2C)cc1Cl` (centres undefined), for which the IC50 was 79 µM.
